Measured values as given in patent publication US20160047819A1, “METHOD FOR DIAGNOSING VAGINAL INFECTIONS” (priority 2013, published 2016).

Test system: vaginal proteome (human proteins in vaginal fluid)
Experiment: MS/MS proteomic analysis of vaginal fluid pools, BV-affected women before (BV) and after rifaximin/placebo treatment: human proteins
Assay type: in vivo
Method: Proteomic analysis was performed on 9 pools of vaginal isolates, grouped according to the status of the BV infection: • H pool (from 41 healthy women); BV pool (from 39 BV-affected women); • A-R pool (from 2 women who were in remission after rifaximin treatment-group A); • A-N pool (from 8 women who were not in remission after rifaximin treatment-group A); • B-R pool (from 5 women who were in remission after rifaximin treatment-group B); • B-N pool (from 5 women who were not in remission after rifaximin treatment-group B); • C-R pool (from 4 women who were in remission after rifaximin treatment-group C); • C-N (from 5 women who were not in remission after rifaximin treatment-group C); • D-N (from 10 women who were not in remission after placebo treatment-group D). Scheme of the vaginal fluids collected for testing the diagnostic method is represented in FIG. 1.
In these figures are reported the peptides in the fractionated pools of healthy women, women affected by BV and peptides of women treated with rifaximin. The treatment with rifaximin was at dosage of 100 mg/day for 5 days; (remission, A-R; no remission, A-N), 25 mg/5 days (remission, B-R; no remission, B-N), 100 mg/2 days (remission, C-R; no remission, C-N), and placebo for 5 days (D-N). Two types of comparisons were carried out: (i) between fractionated pools of proteins from vaginal fluid of healthy women (HF) versus fractionated pool of proteins from vaginal fluid of women affected by bacterial vaginosis (BVF); (ii) between whole pools of proteins from vaginal fluid of women affected by BV treated by administering different doses of rifaximin or placebo before (BV) and after (A-R, A-N, B-R, B-N, C-R, C-N, D-N) treatment. Fractioned pools of proteins are obtained, e.g., by separating the proteins by separation on membrane filtration with different membrane porosity, prior to MS/MS analysis.
Nine volumes of acetone: HCl (10:1) were added to the supernatant of the vaginal rinsing and proteins were precipitated by centrifuging at 12000 g for 10 min. The protein pellet was dissolved in 1 mL of 70% ethanol and the sample was spun at 12000 g for 10 min. One mL of acetone was added and the proteins were further precipitated by centrifugation at 12000 g for 5 min. After removing supernatant, pellet was dried by SpeedVac concentrator (Thermo Savant ISS110, Thermo Fisher Scientific, Waltham, Mass.) and then stored at −20° C.
Protein extract was quantified using the 2-D Quant Kit (GE Healthcare, Uppsala, Sweden) according to the manufacturer's instructions.
Patients who were diagnosed for BV at the study visit V1 were included in a multicentre, double-blind, randomised, placebo-controlled study (EudraCT: 2009-011826-32), that was performed to compare the efficacy of different doses of rifaximin vaginal tablets versus placebo for the treatment of BV. The patients underwent a randomisation visit and were distributed into 4 treatment groups: group A received 100 mg rifaximin vaginal tablet once daily for 5 days (n=10), group B received 25 mg rifaximin vaginal tablet once daily for 5 days (n=10), group C received 100 mg rifaximin vaginal tablet once daily for the first 2 days and placebo vaginal tablet for the remaining 3 days (n=9), group D received placebo vaginal tablet once daily for 5 days (n=10). Study medication was administered intra-vaginally at bedtime. After 7 to 10 days from the end of the therapy a follow-up visit (V3) was performed. Remission was evaluated at V3 according to Amsel's criteria (<3) and Gram stain Nugent score (≦3) (Table 1).
Standardized vaginal rinsings with 2 mL of saline were collected for analysis at V1 and V3 by flushing and re-aspirating the fluid through a 22 Gauge needle in the left, central and right upper vaginal vaults. The vaginal rinsings were subsequently stored at −80° C. until use.
MS/MS analysis was carried out for H and BV pools and for the whole BV, A-R, A-N, B-R, B-N, C-R, C-N and D-N pools containing 50 μg of protein each. […]

For `CO[C@H]1/C=C/O[C@@]2(C)Oc3c(C)c(O)c4c(O)c(c5c(nc6cc(C)ccn65)c4c3C2=O)NC(=O)/C(C)=C\C=C\[C@H](C)[C@H](O)[C@@H](C)[C@@H](O)[C@@H](C)[C@H](OC(C)=O)[C@@H]1C` [rifaximin], the “Ratio X/H Sciellin (O95171)” value (pool C-N after treatment) was 0.0, the “Ratio X/H Semenogelin-2 (Q02383)” value (pool C-N after treatment) was −1.8 and the “Ratio X/H Serine protease 27 (Q9BQR3)” value (pool C-N after treatment) was 0.0. For the same molecule, the “Ratio X/H Serine/threonine-protein kinase ULK1 (O75385)” value (pool C-N after treatment) was −1.7, the “Ratio X/H Serotransferrin (P02787)” value (pool C-N after treatment) was −1.5 and the “Ratio X/H Serpin B3 (P29508)” value (pool C-N after treatment) was 1.6. The “Ratio X/H Serpin B4 (P48594)” value (pool C-N after treatment) was 0.0, the “Ratio X/H Serpin B5 (P36952)” value (pool C-N after treatment) was −2.6 and the “Ratio X/H Serpin B6 (P35237)” value (pool C-N after treatment) was 0.0. For the same molecule, the “Ratio X/H Serpin B9 (P50453)” value (pool C-N after treatment) was 0.0, the “Ratio X/H Serpin B12 (Q96P63)” value (pool C-N after treatment) was 0.0 and the “Ratio X/H Serpin B13 (Q9UIV8)” value (pool C-N after treatment) was 0.0. For the same molecule, the “Ratio X/H Serum albumin (P02768)” value (pool C-N after treatment) was −1.6, the “Ratio X/H Serum paraoxonase/arylesterase 1 (P27169)” value (pool C-N after treatment) was 1.5 and the “Ratio X/H Small proline-rich protein 3 (Q9UBC9)” value (pool C-N after treatment) was 1.7. For the same molecule, the “Ratio X/H Stanniocalcin-1 (P52823)” value (pool C-N after treatment) was 4.0, the “Ratio X/H Sulfhydryl oxidase 1 (O00391)” value (pool C-N after treatment) was 0.0 and the “Ratio X/H Superoxide dismutase [Cu—Zn] (P00441)” value (pool C-N after treatment) was 0.0. The “Ratio X/H Suprabasin (Q6UWP8)” value (pool C-N after treatment) was 3.9, the “Ratio X/H Syntenin-1 (O00560)” value (pool C-N after treatment) was 0.0 and the “Ratio X/H Talin-1 (Q9Y490)” value (pool C-N after treatment) was 0.0. The “Ratio X/H Tctex1 domain-containing protein 2 (Q8WW35)” value (pool C-N after treatment) was −13.6, the “Ratio X/H Teneurin-3 (Q9P273)” value (pool C-N after treatment) was 10.2 and the “Ratio X/H Thioredoxin (P10599)” value (pool C-N after treatment) was 0.0. The “Ratio X/H Transaldolase (P37837)” value (pool C-N after treatment) was −2.2, the “Ratio X/H Transmembrane protease serine 11D (O60235)” value (pool C-N after treatment) was 0.0 and the “Ratio X/H Transthyretin (P02766)” value (pool C-N after treatment) was −1.8. For the same molecule, the “Ratio X/H Tumor protein D54 (O43399)” value (pool C-N after treatment) was 0.0, the “Ratio X/H UTP--glucose-1-phosphate uridylyltransferase (Q16851)” value (pool C-N after treatment) was 0.0 and the “Ratio X/H UV excision repair protein RAD23 homolog B (P54727)” value (pool C-N after treatment) was −1.5. The “Ratio X/H Uronyl 2-sulfotransferase (Q9Y2C2)” value (pool C-N after treatment) was −917.5, the “Ratio X/H Versican core protein (P13611)” value (pool C-N after treatment) was 0.0 and the “Ratio X/H Vinculin (P18206)” value (pool C-N after treatment) was 0.0. The “Ratio X/H Vitamin D-binding protein (P02774)” value (pool C-N after treatment) was 0.0, the “Ratio X/H Werner syndrome ATP-dependent helicase (Q14191)” value (pool C-N after treatment) was 12.4 and the “Ratio X/H Zinc finger protein 185 (O15231)” value (pool C-N after treatment) was 1.5. For the same molecule, the “Ratio X/H Zinc finger protein 335 (Q9H4Z2)” value (pool C-N after treatment) was 0.0, the “Ratio X/H Zinc-alpha-2-glycoprotein (P25311)” value (pool C-N after treatment) was 0.0 and the “Ratio X/H Zyxin (Q15942)” value (pool C-N after treatment) was 2.0. The “Ratio X/H Sciellin (O95171)” value (pool C-R after treatment) was 0.0, the “Ratio X/H Semenogelin-2 (Q02383)” value (pool C-R after treatment) was 0.0 and the “Ratio X/H Serine protease 27 (Q9BQR3)” value (pool C-R after treatment) was −1.5. The “Ratio X/H Serine/threonine-protein kinase ULK1 (O75385)” value (pool C-R after treatment) was −7.4, the “Ratio X/H Serotransferrin (P02787)” value (pool C-R after treatment) was 0.0 and the “Ratio X/H Serpin B3 (P29508)” value (pool C-R after treatment) was 2.6. For the same molecule, the “Ratio X/H Serpin B4 (P48594)” value (pool C-R after treatment) was 0.0, the “Ratio X/H Serpin B5 (P36952)” value (pool C-R after treatment) was 2.0 and the “Ratio X/H Serpin B6 (P35237)” value (pool C-R after treatment) was −2.2. The “Ratio X/H Serpin B9 (P50453)” value (pool C-R after treatment) was −6.6, the “Ratio X/H Serpin B12 (Q96P63)” value (pool C-R after treatment) was −1.7 and the “Ratio X/H Serpin B13 (Q9UIV8)” value (pool C-R after treatment) was 0.0. The “Ratio X/H Serum albumin (P02768)” value (pool C-R after treatment) was −2.1, the “Ratio X/H Serum paraoxonase/arylesterase 1 (P27169)” value (pool C-R after treatment) was 0.0 and the “Ratio X/H Small proline-rich protein 3 (Q9UBC9)” value (pool C-R after treatment) was 4.4. The “Ratio X/H Stanniocalcin-1 (P52823)” value (pool C-R after treatment) was 13.3, the “Ratio X/H Sulfhydryl oxidase 1 (O00391)” value (pool C-R after treatment) was −1.6 and the “Ratio X/H Superoxide dismutase [Cu—Zn] (P00441)” value (pool C-R after treatment) was 0.0. For the same molecule, the “Ratio X/H Suprabasin (Q6UWP8)” value (pool C-R after treatment) was 14.4, the “Ratio X/H Syntenin-1 (O00560)” value (pool C-R after treatment) was −2.3 and the “Ratio X/H Talin-1 (Q9Y490)” value (pool C-R after treatment) was 0.0. For the same molecule, the “Ratio X/H Tctex1 domain-containing protein 2 (Q8WW35)” value (pool C-R after treatment) was 0.0, the “Ratio X/H Teneurin-3 (Q9P273)” value (pool C-R after treatment) was 0.0 and the “Ratio X/H Thioredoxin (P10599)” value (pool C-R after treatment) was 0.0. For the same molecule, the “Ratio X/H Transaldolase (P37837)” value (pool C-R after treatment) was 2.4, the “Ratio X/H Transmembrane protease serine 11D (O60235)” value (pool C-R after treatment) was 0.0 and the “Ratio X/H Transthyretin (P02766)” value (pool C-R after treatment) was 0.0. For the same molecule, the “Ratio X/H Tumor protein D54 (O43399)” value (pool C-R after treatment) was 0.0, the “Ratio X/H UTP--glucose-1-phosphate uridylyltransferase (Q16851)” value (pool C-R after treatment) was 0.0 and the “Ratio X/H UV excision repair protein RAD23 homolog B (P54727)” value (pool C-R after treatment) was −2.2. The “Ratio X/H Uronyl 2-sulfotransferase (Q9Y2C2)” value (pool C-R after treatment) was −7.7, the “Ratio X/H Versican core protein (P13611)” value (pool C-R after treatment) was 0.0 and the “Ratio X/H Vinculin (P18206)” value (pool C-R after treatment) was 0.0. For the same molecule, the “Ratio X/H Vitamin D-binding protein (P02774)” value (pool C-R after treatment) was 0.0, the “Ratio X/H Werner syndrome ATP-dependent helicase (Q14191)” value (pool C-R after treatment) was 209.6 and the “Ratio X/H Zinc finger protein 185 (O15231)” value (pool C-R after treatment) was 1.8. For the same molecule, the “Ratio X/H Zinc finger protein 335 (Q9H4Z2)” value (pool C-R after treatment) was 0.0, the “Ratio X/H Zinc-alpha-2-glycoprotein (P25311)” value (pool C-R after treatment) was 0.0 and the “Ratio X/H Zyxin (Q15942)” value (pool C-R after treatment) was 0.0.
